The source of these data is patent US20120264735A1 (priority 2009, published 2012).

T1 sequence (P08581 25-1390): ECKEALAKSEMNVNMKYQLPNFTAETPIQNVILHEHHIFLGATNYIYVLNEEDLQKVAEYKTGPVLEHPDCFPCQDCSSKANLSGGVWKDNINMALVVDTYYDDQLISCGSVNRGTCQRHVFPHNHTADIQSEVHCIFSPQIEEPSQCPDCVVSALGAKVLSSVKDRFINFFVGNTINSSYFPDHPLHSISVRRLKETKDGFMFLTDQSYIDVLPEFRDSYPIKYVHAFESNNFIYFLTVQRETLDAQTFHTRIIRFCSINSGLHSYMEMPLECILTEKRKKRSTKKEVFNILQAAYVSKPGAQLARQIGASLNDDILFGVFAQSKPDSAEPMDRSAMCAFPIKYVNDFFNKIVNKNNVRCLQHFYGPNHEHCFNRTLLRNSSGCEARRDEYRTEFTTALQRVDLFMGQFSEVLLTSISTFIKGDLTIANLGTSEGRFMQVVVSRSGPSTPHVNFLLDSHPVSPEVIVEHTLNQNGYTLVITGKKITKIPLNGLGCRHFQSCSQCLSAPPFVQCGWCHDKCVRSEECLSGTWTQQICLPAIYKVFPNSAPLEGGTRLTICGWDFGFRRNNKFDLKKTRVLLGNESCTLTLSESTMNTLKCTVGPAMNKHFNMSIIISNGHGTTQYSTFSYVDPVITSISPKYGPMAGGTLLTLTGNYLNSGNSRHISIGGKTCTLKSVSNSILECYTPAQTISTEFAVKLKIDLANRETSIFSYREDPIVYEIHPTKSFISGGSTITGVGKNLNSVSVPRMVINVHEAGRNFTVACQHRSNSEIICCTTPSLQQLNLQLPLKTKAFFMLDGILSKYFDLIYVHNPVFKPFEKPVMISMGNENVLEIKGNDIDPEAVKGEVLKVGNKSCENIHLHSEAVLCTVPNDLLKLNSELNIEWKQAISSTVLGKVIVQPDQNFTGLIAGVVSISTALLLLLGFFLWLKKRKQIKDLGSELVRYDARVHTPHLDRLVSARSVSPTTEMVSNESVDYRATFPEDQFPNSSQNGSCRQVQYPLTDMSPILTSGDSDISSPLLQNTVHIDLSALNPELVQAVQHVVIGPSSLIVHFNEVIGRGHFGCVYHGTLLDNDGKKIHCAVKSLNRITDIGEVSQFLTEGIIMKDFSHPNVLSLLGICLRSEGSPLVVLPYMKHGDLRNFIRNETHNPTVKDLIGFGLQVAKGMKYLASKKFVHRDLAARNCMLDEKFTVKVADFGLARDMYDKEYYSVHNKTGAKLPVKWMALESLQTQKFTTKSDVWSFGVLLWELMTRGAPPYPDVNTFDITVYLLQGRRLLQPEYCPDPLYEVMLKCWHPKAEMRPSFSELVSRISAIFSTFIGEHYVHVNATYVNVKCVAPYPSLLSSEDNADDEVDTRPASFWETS

This test concerns the target T1, c-Met kinase (recombinant c-Met) (Homo sapiens, UniProt P08581).
T1 construct: 0.27 nM recombinant c-Met
The experiment in a line: In vitro kinase assay I (homogeneous time-resolved fluorescence tyrosine kinase assay). The format is biochemical. The method, boiled down: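 Biotinylated peptide (0.5 μM) phosphorylated by 0.2 nM recombinant c-Met with 50 μM MgATP, 60 min at room temperature, pH 7.4, 5% DMSO. EDTA stop; HTRF read with Eu-anti-phosphotyrosine antibody and streptavidin-APC. IC50 from 4-parameter logistic fit.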
In the case of `C/C=C/c1cnc(-c2cccc(Cc3nn(-c4cnn(C)c4)ccc3=O)c2)nc1` [Example 400, 1-(1-methyl-1H-pyrazol-4-yl)-3-(3-{5-[(1E)-prop-1-en-1-yl]pyrimidin-2-yl}benzyl)pyridazin-4(1H)-one], the IC50 (commonly the concentration that inhibits the measured activity by half) was under 100 nM.

In the case of `Cn1cc(-n2ccc(=O)c(Cc3cccc(-c4ncc(/C=C/C(C)(C)O)cn4)c3)n2)cn1` [Example 401, 3-(3-{5-[(1E)-3-hydroxy-3-methylbut-1-en-1-yl]pyrimidin-2-yl}benzyl)-1-(1-methyl-1H-pyrazol-4-yl)pyridazin-4(1H)-one], the IC50 was under 100 nM.

In the case of `COC/C=C/c1cnc(-c2cccc(Cc3nn(-c4cnn(C)c4)ccc3=O)c2)nc1` [Example 402, 3-(3-{5-[(1E)-3-methoxyprop-1-en-1-yl]pyrimidin-2-yl}benzyl)-1-(1-methyl-1H-pyrazol-4-yl)pyridazin-4(1H)-one], the IC50 is under 100 nM.

Turning to `CN(C)C/C=C/c1cnc(-c2cccc(Cc3nn(-c4cnn(C)c4)ccc3=O)c2)nc1` [Example 403, 3-(3-{5-[(1E)-3-(dimethylamino)prop-1-en-1-yl]pyrimidin-2-yl}benzyl)-1-(1-methyl-1H-pyrazol-4-yl)pyridazin-4(1H)-one], the half-inhibitory concentration (IC50) was under 100 nM.

Turning to `Cn1cc(-n2ccc(=O)c(Cc3cccc(-c4ncc(-c5ccco5)cn4)c3)n2)cn1` [Example 404, 3-{3-[5-(furan-2-yl)pyrimidin-2-yl]benzyl}-1-(1-methyl-1H-pyrazol-4-yl)pyridazin-4(1H)-one], the 50% inhibitory concentration (IC50) was under 100 nM.

As to `CCc1cnc(-c2cccc(Cc3nn(-c4ccc(F)c(F)c4)ccc3=O)c2)nc1` [Example 407, 1-(3,4-difluorophenyl)-3-[3-(5-ethylpyrimidin-2-yl)benzyl]pyridazin-4(1H)-one], the IC50 is under 100 nM.

Turning to `Cn1cc(-n2ccc(=O)c(Cc3cccc(-c4ncc(-c5ccncc5)cn4)c3)n2)cn1` [Example 409, 1-(1-Methyl-1H-pyrazol-4-yl)-3-{3-[5-(pyridin-4-yl)pyrimidin-2-yl]benzyl}pyridazin-4(1H)-one], the IC50 is under 100 nM.

On to `Cn1cc(-n2ccc(=O)c(Cc3cccc(-c4ncc(-c5cn[nH]c5)cn4)c3)n2)cn1` [Example 410, 1-(1-methyl-1H-pyrazol-4-yl)-3-{3-[5-(1H-pyrazol-4-yl)pyrimidin-2-yl]benzyl}pyridazin-4(1H)-one], for which the IC50 is under 100 nM.

As for `Cn1cc(-n2ccc(=O)c(Cc3cccc(-c4ncc(-c5cncnc5)cn4)c3)n2)cn1` [Example 411, 3-[3-(5,5′-bipyrimidin-2-yl)benzyl]-1-(1-methyl-1H-pyrazol-4-yl)pyridazin-4(1H)-one], the IC50 is under 100 nM.

Consider `Cn1cc(-n2ccc(=O)c(Cc3cccc(-c4ncc(-c5cccnc5)cn4)c3)n2)cn1` [Example 412, 1-(1-methyl-1H-pyrazol-4-yl)-3-[3-(5-pyridin-3-ylpyrimidin-2-yl)benzyl]pyridazin-4(1H)-one], for which the IC50 was under 100 nM.

`Cn1cc(-n2ccc(=O)c(Cc3cccc(-c4ncc(-c5ccc(C#N)nc5)cn4)c3)n2)cn1` [Example 413, 5-[2-(3-{[1-(1-methyl-1H-pyrazol-4-yl)-4-oxo-1,4-dihydropyrida-zin-3-yl]methyl}phenyl)pyrimidin-5-yl]pyridine-2-carbonitrile]: the IC50 was under 100 nM.

Regarding `Cn1cc(-n2ccc(=O)c(Cc3cccc(-c4ncc(-c5cncc(F)c5)cn4)c3)n2)cn1` [Example 414, 3-{3-[5-(5-fluoropyridin-3-yl)pyrimidin-2-yl]benzyl}-1-(1-methyl-1H-pyrazol-4-yl)pyridazin-4(1H)-one], the IC50 is under 100 nM.

Consider `Cc1cnccc1-c1cnc(-c2cccc(Cc3nn(-c4cnn(C)c4)ccc3=O)c2)nc1` [Example 416, 1-(1-methyl-1H-pyrazol-4-yl)-3-{3-[5-(3-methylpyridin-4-yl)pyrimidin-2-yl]benzyl}pyridazin-4(1H)-one], for which the IC50 is under 100 nM.

Take `Cn1cc(-n2ccc(=O)c(Cc3cccc(-c4ncc(-c5cnc(N)nc5)cn4)c3)n2)cn1` [Example 417, 3-[3-(2′-amino-5,5′-bipyrimidin-2-yl)benzyl]-1-(1-methyl-1H-pyrazol-4-yl)pyridazin-4(1H)-one]: the IC50 was under 100 nM.

In the case of `Cn1cc(-n2ccc(=O)c(Cc3cccc(-c4ncc(-c5ccc(F)cn5)cn4)c3)n2)cn1` [Example 418, 3-{3-[5-(5-fluoropyridin-2-yl)pyrimidin-2-yl]benzyl}-1-(1-methyl-1H-pyrazol-4-yl)pyridazin-4(1H)-one], the half-inhibitory concentration (IC50) is under 100 nM.

Take `Cn1cc(-n2ccc(=O)c(Cc3cccc(-c4ncc(-c5ccc(N)nc5)cn4)c3)n2)cn1` [Example 419, 3-{3-[5-(6-aminopyridin-3-yl)pyrimidin-2-yl]benzyl}-1-(1-methyl-1H-pyrazol-4-yl)pyridazin-4(1H)-one]: the IC50 was under 100 nM.

Consider `Cn1cc(-n2ccc(=O)c(Cc3cccc(-c4ncc(-c5cc[nH]n5)cn4)c3)n2)cn1` [Example 420, 1-(1-methyl-1H-pyrazol-4-yl)-3-{3-[5-(1H-pyrazol-3-yl)pyrimidin-2-yl]benzyl}pyridazin-4(1H)-one], for which the IC50 was under 100 nM.

Turning to `Cn1cc(-n2ccc(=O)c(Cc3cccc(-c4ncc(-c5ccn(C)n5)cn4)c3)n2)cn1` [Example 421, 1-(1-methyl-1H-pyrazol-4-yl)-3-{3-[5-(1-melhyl-1H-pyrazol-3-yl)pyrimidin-2-yl]benzyl}pyridazin-4(1H)-one], the IC50 was under 100 nM.

Take `Cn1cc(-n2ccc(=O)c(Cc3cccc(-c4ncc(-c5cscn5)cn4)c3)n2)cn1` [Example 422, 1-(1-methyl-1H-pyrazol-4-yl)-3-{3-[5-(1,3-thiazol-4-yl)pyrimidin-2-yl]benzyl}pyridazin-4(1H)-one]: the IC50 was under 100 nM.

On to `Cn1cc(-n2ccc(=O)c(Cc3cccc(-c4ncc(-c5cnoc5)cn4)c3)n2)cn1` [Example 423, 3-[3-(5-isoxazol-4-ylpyrimidin-2-yl)benzyl]-1-(1-methyl-1H-pyrazol-4-yl)pyridazin-4(1H)-one], for which the IC50 is under 100 nM.

As for `Cc1noc(C)c1-c1cnc(-c2cccc(Cc3nn(-c4cnn(C)c4)ccc3=O)c2)nc1` [Example 424, 3-{3-[5-(3,5-dimethylisoxa-zol-4-yl)pyrimidin-2-yl]benzyl}-1-(1-methyl-1H-pyrazol-4-yl)pyridazin-4(1H)-one], the IC50 lay within 100 to 1000 nM.

Take `Cn1cc(-n2ccc(=O)c(Cc3cccc(-c4ncc(-c5ccnnc5)cn4)c3)n2)cn1` [Example 425, 1-(1-methyl-1H-pyrazol-4-yl)-3-[3-(5-pyridazin-4-ylpyrimidin-2-yl)benzyl]pyridazin-4(1H)-one]: the half-maximal inhibitory concentration (IC50) is under 100 nM.

For `Cn1cc(-n2ccc(=O)c(Cc3cccc(-c4ncc(CN5CCOCC5)cn4)c3)n2)cn1` [Example 426, 1-(1-Methyl-1H-pyrazol-4-yl)-3-{3-[5-(morpholin-4-ylmethyl)pyrimidin-2-yl]benzyl}pyridazin-4(1H)-one], the IC50 is under 100 nM.

With `CNCc1cnc(-c2cccc(Cc3nn(-c4cnn(C)c4)ccc3=O)c2)nc1` [Example 427, 3-(3-{5-[(methylamino)methyl]pyrimidin-2-yl}benzyl)-1-(1-methyl-1H-pyrazol-4-yl)pyridazin-4(1H)-one], the IC50 lay in the range of 100 to 1000 nM.

Take `Cn1cc(-n2ccc(=O)c(Cc3cccc(-c4ncc(CN5CCSCC5)cn4)c3)n2)cn1` [Example 428, 1-(1-methyl-1H-pyrazol-4-yl)-3-{3-[5-(thiomorpholin-4-ylmethyl)pyrimidin-2-yl]benzyl}pyridazin-4(1H)-one]: the concentration for half-maximal inhibition (IC50) is under 100 nM.

For `Cn1cc(-n2ccc(=O)c(Cc3cccc(-c4ncc(CN5CCCC5)cn4)c3)n2)cn1` [Example 429, 1-(1-methyl-1H-pyrazol-4-yl)-3-{3-[5-(pyrrolidin-1-ylmethyl)pyrimidin-2-yl]benzyl}pyridazin-4(1H)-one], the IC50 was under 100 nM.

Take `CN(C)Cc1cnc(-c2cccc(Cc3nn(-c4cnn(C)c4)ccc3=O)c2)nc1` [Example 430, 3-(3-{5-[(dimethylamino)methyl]pyrimidin-2-yl}benzyl)-1-(1-methyl-1H-pyrazol-4-yl)pyridazin-4(1H)-one]: the IC50 was under 100 nM.

As for `Cn1cc(-n2ccc(=O)c(Cc3cccc(-c4ncc(CNC5CCCCC5)cn4)c3)n2)cn1` [Example 432, 3-(3-{5-[(cyclohexyl-amino)methyl]pyrimidin-2-yl}benzyl)-1-(1-methyl-1H-pyrazol-4-yl)pyridazin-4(1H)-one], the IC50 was 100 to 1000 nM.

On to `Cn1cc(-n2ccc(=O)c(Cc3cccc(-c4ncc(CN5CCNCC5)cn4)c3)n2)cn1` [Example 433], for which the IC50 was under 100 nM.

Regarding `Cn1cc(-n2ccc(=O)c(Cc3cccc(-c4ncc(-c5cnn(C6COC6)c5)cn4)c3)n2)cn1` [Example 435, 1-(1-Methyl-1H-pyrazol-4-yl)-3-{3-[5-(1-oxetan-3-yl-1H-pyrazol-4-yl)pyrimidin-2-yl]benzyl}pyridazin-4(1H)-one], the IC50 is under 100 nM.

For `CC(C)c1cnc(-c2cccc(Cc3nn(-c4cnn(C)c4)ccc3=O)c2)nc1` [Example 436, 1-(1-Methyl-1H-pyrazol-4-yl)-3-{3-[5-(propan-2-yl)pyrimidin-2-yl]benzyl}pyridazin-4(1H)-one], the IC50 is under 100 nM.

As to `Cn1cc(-n2ccc(=O)c(Cc3cccc(-c4ncc(CCC(C)(C)O)cn4)c3)n2)cn1` [Example 437, 3-{3-[5-(3-hydroxy-3-methylbutyl)pyrimidin-2-yl]benzyl}-1-(1-methyl-1H-pyrazol-4-yl)pyridazin-4(1H)-one], the IC50 is under 100 nM.

In the case of `CN(C)CCCc1cnc(-c2cccc(Cc3nn(-c4cnn(C)c4)ccc3=O)c2)nc1` [Example 438, 3-(3-{5-[3-(dimethylamino)propyl]pyrimidin-2-yl}benzyl)-1-(1-methyl-1H-pyrazol-4-yl)pyridazin-4(1H)-one], the half-maximal inhibitory concentration (IC50) was under 100 nM.

Turning to `COCCCc1cnc(-c2cccc(Cc3nn(-c4cnn(C)c4)ccc3=O)c2)nc1` [Example 439, 3-{3-[5-(3-methoxypropyl)pyrimidin-2-yl]benzyl}-1-(1-methyl-1H-pyrazol-4-yl)pyridazin-4(1H)-one], the concentration for half-maximal inhibition (IC50) is under 100 nM.
